Experimental findings from ChEMBL document CHEMBL3526022, “Which metabolites circulate?” (Drug Metab Dispos, 2013) are described below.

Structures can show the parent of a compound that is named as a salt.

Data set [1] is filed under the species Homo sapiens. Description: Unbound hepatobiliary clearance in human treated with propranolol. Type of data set: ADME, organism-based. Conditions: in vivo.
Data set [2] is described as follows: Fraction unbound in human treated with propranolol. It is filed as ADME, organism-based. Particulars: in vivo.
Data set [3] is described as follows: Systemic clearance in human treated with propranolol. It is filed as ADME, organism-based. Conditions: in vivo.
The species named for data set [4] is Homo sapiens. Description: Unbound renal clearance in human treated with propranolol. Type of data set: ADME, organism-based, Kidney. Particulars: in vivo.
Data set [5] can be described thus: Systemic clearance in human. It is filed as ADME, organism-based. Conditions: in vivo.
Data set [6] is described as follows: Fraction unbound in human. It is filed as ADME, organism-based. Conditions: in vivo.
In data set [7] the test system is Homo sapiens. The experiment in a line: Unbound hepatobiliary clearance in human at 120 mg, po. It is filed as ADME, organism-based. Particulars: in vivo.
Data set [8] in a line: Fraction unbound in human at 120 mg, po. Type of data set: ADME, organism-based. Particulars: in vivo.
The nature of data set [9]: Systemic clearance in human at 120 mg, po. Type of data set: ADME, organism-based. Particulars: in vivo.
The species entered for data set [10] is Homo sapiens. The experiment in a line: Unbound renal clearance in psychiatric patient treated with clozapine. Particulars: in vivo. It is filed as ADME, organism-based, Kidney.
For data set [11], the species on record is Homo sapiens. The experiment in a line: Unbound hepatobiliary clearance in psychiatric patient treated with clozapine. Type of data set: ADME, organism-based. Conditions: in vivo.
Data set [12] is described as follows: Systemic clearance in psychiatric patient treated with clozapine. Type of data set: ADME, organism-based. Conditions: human, in vivo.
Data set [13] can be described thus: Fraction unbound in psychiatric patient treated with clozapine. It is filed as ADME, organism-based. Conditions: human, in vivo.
The species named for data set [14] is Homo sapiens. Description: Unbound hepatobiliary clearance in human treated with darifenacin. It is filed as ADME, organism-based. Conditions: in vivo.
The species entered for data set [15] is Homo sapiens. The experiment in a line: Unbound renal clearance in human treated with darifenacin. Conditions: in vivo. It is filed as ADME, organism-based, Kidney.
The species entered for data set [16] is Homo sapiens. Particulars: in vivo.
Data set [17] can be described thus: clinical. Conditions: human, in vivo, iv.
Data set [18] in a line: Fraction unbound in healthy human at 10 mg, iv bolus dose and 25, 50 and 100 mg, po. Type of data set: ADME, organism-based. Conditions: in vivo.
Data set [19] is filed under the species Homo sapiens. Conditions: in vivo. This is another data set of the same source.
Data set [20] relates to Homo sapiens. Description: Unbound renal clearance in human at 4 mg, po twice daily for 8 days. It is filed as ADME, organism-based, Kidney. Conditions: in vivo, 192 h.
A short description of data set [21]: physchem.
Description: Dissociation constant, pKa of the compound
A short description of data set [22]: Systemic clearance in human at 4 mg, po twice daily for 8 days. Type of data set: ADME, organism-based. Conditions: in vivo.
Data set [23] relates to Homo sapiens. Description: Unbound hepatobiliary clearance in human at 4 mg, po twice daily for 8 days. It is filed as ADME, organism-based. Particulars: in vivo, 192 h.
The subject of data set [24] is Homo sapiens. The experiment in a line: Unbound renal clearance in healthy human treated with chlorpromazine at 10 mg, iv bolus dose and 25, 50 and 100 mg, po. Particulars: in vivo. Type of data set: ADME, organism-based, Kidney.
Data set [25] is described as follows: Fraction unbound in healthy human treated with chlorpromazine at 10 mg, iv bolus dose and 25, 50 and 100 mg, po. It is filed as ADME, organism-based. Particulars: in vivo.
The test system of data set [26] is Homo sapiens. The experiment in a line: Unbound hepatobiliary clearance in healthy human treated with chlorpromazine at 10 mg, iv bolus dose and 25, 50 and 100 mg, po. Type of data set: ADME, organism-based. Conditions: in vivo.
The nature of data set [27]: Systemic clearance in healthy human treated with chlorpromazine at 10 mg, iv bolus dose and 25, 50 and 100 mg, po. Conditions: in vivo. It is filed as ADME, organism-based.

With `CC(C)NCC(O)COc1ccc(O)c2ccccc12` (configuration not stated) [4-HYDROXYPROPRANOLOL SULFATE], the CL free in data set [1] turned out to be 14.9 L/h/kg; in [4], 0.3 L/h/kg. The fraction unbound in data set [2] stood at 0.26. Also, in data set [3], the clearance was 3.96 L/h/kg.
In [5], `CC(C)NCC(O)COc1cccc2ccccc12` (configuration not stated) [PROPRANOLOL] displayed a clearance of 1.2 L/h/kg. This molecule also gave a fraction unbound in data set [6] of 0.15.
As for `COc1ccc([C@@H]2Sc3ccccc3N(CCN(C)C)C(=O)[C@@H]2OC(C)=O)cc1` [DILTIAZEM], the CL free in [7] amounted to 2.88 L/h/kg. The free fraction (fraction unbound) in [8] came to 0.25. For the same molecule, the CL/F in data set [9] came to 0.72 L/h/kg.
On to `Clc1ccc2c(c1)N=C(N1CCNCC1)c1ccccc1N2` [N-DESMETHYLCLOZAPINE], for which the results for the CL free in data set [10] and in data set [11] were 0.3 L/h/kg and 0.072 L/h/kg, respectively. Further, the clearance in [12] was 0.036 L/h/kg. Further, the fraction unbound in data set [13] amounted to 0.097.
`NC(=O)C(c1ccccc1)(c1ccccc1)[C@@H]1CCN(CCc2ccc3c(c2)C(O)CO3)C1` (some centres not stated): the CL free in [14] was determined as 3.6 L/h/kg; in data set [15] it was 2.82 L/h/kg.
For `CN(C)CCCN1c2ccccc2Sc2ccc(Cl)cc21` [CHLORPROMAZINE], the CL free in data set [16] is 840 L/h/kg; in data set [19], 0.06 L/h/kg. The clearance in data set [17] amounted to 1.1 L/h/kg. This molecule also registered a Fu in [18] of 0.0013.
Take `Cc1ccc(O)c([C@H](CCN(C(C)C)C(C)C)c2ccccc2)c1` [TOLTERODINE]: the CL free in data set [20] was 0.06 L/h/kg; in [23], 71.4 L/h/kg. Besides, in data set [21], the pKa worked out at 14.7. For the same molecule, in data set [22], the CL/F amounted to 2.64 L/h/kg.
In the case of `CN(C)CCCN1c2ccc(O)cc2Sc2ccc(Cl)cc21` [7-HYDROXYCHLORPROMAZINE], the CL free in [24] was determined as 0.36 L/h/kg; in data set [26] it was 24 L/h/kg. The same molecule showed a fraction unbound in [25] of 0.015. In data set [27], the clearance turned out to be 0.366 L/h/kg.
